Measurements taken from patent US10533015B1, “Opioid receptor antagonist prodrugs” (Nirsum Laboratories, Inc., priority 2019, dated 2020).
Like-named read-outs stand apart in the source and are kept apart here.

What was measured:
[1] = Plasma stability assay, rat plasma; format: in vitro ADME; conditions: 10 μM, 37° C.
Experimental: Plasma stability determination of the test compounds in rat, dog, cynomolgus monkey and human plasma is performed using HPLC-MS. For rat, incubations are carried out in 96-well polypropylene plates in 5 aliquots of 70 μL each (one for each time point). […] Five time points are analyzed (0, 15, 120, 480 and 1440 min). For dog, monkey and human, test compounds (2 μM, final solvent concentration 1%) were also incubated at 37° C. and analyzed at five time points (0, 10, 30, 60 and 120 min). All incubations are performed in duplicates. The samples are analyzed by HPLC-MS. The percentage of parent compound remaining after incubation in plasma is determined.

[2] = Polymorph screening of solid state drug substances; conditions: for Dry method and appearance: after stirring 50 °C 72 hours, dried solid; for XRPD results (Dried): dried solid after 50 °C 72 hours; for Visual observation 50° C. / Visual observation RT: target conc. 100 mg/ml
[3] = heating temp. 60 °C, obs. temp. 25 °C
[4] = heating temp. 40 °C, obs. temp. 40 °C
[5] = heating temp. 60 °C, obs. temp. 40 °C

In the case of `CCCCCCCCCCCCCCCCCCCCCC(=O)Oc1ccc2c3c1O[C@H]1C(=O)CC[C@@]4(O)C(C2)N(CC2CC2)CC[C@]314` [Compound 51, (4aS,7aR,12bS)-3-(cyclopropylmethyl)-4a-hydroxy-7-oxo-2,3,4,4a,5,6,7,7a-octahydro-1H-4,12-methanobenzofuro[3,2-e]isoquinolin-9-yl docosanoate], the “% remaining at time point” value ([1]; 0 min) is reported as 100%, the “% remaining at time point” value ([1]; 15 min) is reported as 107.4% and the “% remaining at time point” value ([1]; 120 min) is reported as 105.3%. The “% remaining at time point” value ([1]; 480 min) was 88.2%, the “% remaining at time point” value ([1]; 1440 min) was 92.7% and the “Approximate Solubility (mg/mL) in Excipient: Cottonseed oil” value (from here on “Approximate Solubility … Cottonseed oil”) [3] was under 50 mg/mL. For the same compound, the “Approximate Solubility (mg/mL) in Excipient: Sesame oil” value (“Approximate Solubility … Sesame oil” for short) [3] was under 46 mg/mL and the “Equilibrium solubility (mg/mL) Water” value [4] was under 0.001 mg/mL.

For `C=C1CC[C@@]2(O)C3Cc4ccc(OC(=O)OCCCCCCCCCC)c5c4[C@@]2(CCN3CC2CC2)[C@H]1O5` [Compound 18, (4aS,7aS,12bS)-3-(cyclopropylmethyl)-4a-hydroxy-7-methylene-2,3,4,4a,5,6,7,7a-octahydro-1H-4,12-methanobenzofuro[3,2-e]isoquinolin-9-yl decyl carbonate], the “% remaining at time point” value ([1]; 0 min) was 100%, the “% remaining at time point” value ([1]; 15 min) was 0.6% and the “% remaining at time point” value ([1]; 120 min) was 0.3%. The “% remaining at time point” value ([1]; 480 min) was 0.1%, the “% remaining at time point” value ([1]; 1440 min) was 0% and the “Approximate Solubility … Cottonseed oil” value [4] was over 403 mg/mL. For the same compound, the “Approximate Solubility … Cottonseed oil” value [3] was over 400 mg/mL, the “Approximate Solubility (mg/mL) in Excipient: Ethanol” value (“Approximate Solubility … Ethanol” below) [4] was over 209 mg/mL and the “Approximate Solubility … Sesame oil” value [4] was over 403 mg/mL. The “Approximate Solubility … Sesame oil” value [3] was over 402 mg/mL and the “Equilibrium solubility (mg/mL) Water” value [4] was under 0.0002 mg/mL.

For “Enalapril maleate salt [reference compound]”, the “% remaining at time point” value ([1]; 0 min) was 100%, the “% remaining at time point” value ([1]; 15 min) was 44% and the “% remaining at time point” value ([1]; 120 min) was 2.9%. For the same compound, the “% remaining at time point” value ([1]; 480 min) was 8.2% and the “% remaining at time point” value ([1]; 1440 min) was 4.8%.

For `CCCCCCCCCCCCCCCCCC(=O)Oc1ccc2c3c1O[C@H]1C(=O)CC[C@@]4(O)C(C2)N(CC2CC2)CC[C@]314` [Compound 54, (4aS,7aR,12bS)-3-(cyclopropylmethyl)-4a-hydroxy-7-oxo-2,3,4,4a,5,6,7,7a-octahydro-1H-4,12-methanobenzofuro[3,2-e]isoquinolin-9-yl stearate], the “% remaining at time point” value ([1]; 0 min) was 100%, the “% remaining at time point” value ([1]; 15 min) was 98.8% and the “% remaining at time point” value ([1]; 120 min) was 62.4%. The “% remaining at time point” value ([1]; 480 min) was 45.6%, the “% remaining at time point” value ([1]; 1440 min) was 19.4% and the “Approximate Solubility … Cottonseed oil” value [3] was under 51 mg/mL. For the same compound, the “Approximate Solubility … Sesame oil” value [3] was under 50 mg/mL and the “Equilibrium solubility (mg/mL) Water” value [4] was under 0.001 mg/mL.

For `C=C1CC[C@@]2(O)C3Cc4ccc(OC(=O)OCCCCCCCCCCCCC)c5c4[C@@]2(CCN3CC2CC2)[C@H]1O5` [Compound 30, (4aS,7aS,12bS)-3-(cyclopropylmethyl)-4a-hydroxy-7-methylene-2,3,4,4a,5,6,7,7a-octahydro-1H-4,12-methanobenzofuro[3,2-e]isoquinolin-9-yl tridecyl carbonate], the “% remaining at time point” value ([1]; 0 min) was 100%, the “% remaining at time point” value ([1]; 15 min) was 65.7% and the “% remaining at time point” value ([1]; 120 min) was 40.3%. For the same compound, the “% remaining at time point” value ([1]; 480 min) was 30.5%, the “% remaining at time point” value ([1]; 1440 min) was 22.2% and the “Approximate Solubility … Cottonseed oil” value [3] was 252.5 to 404.06 mg/mL. For the same compound, the “Approximate Solubility … Sesame oil” value [3] was 252.55 to 398.6 mg/mL and the “Equilibrium solubility (mg/mL) Water” value [4] was under 0.001 mg/mL.

In the case of `C=C1CC[C@@]2(O)C3Cc4ccc(OC(=O)CCCCCCCCCCCCCCCCCCC)c5c4[C@@]2(CCN3CC2CC2)[C@H]1O5` [Compound 16, (4aS,7aS,12bS)-3-(cyclopropylmethyl)-4a-hydroxy-7-methylene-2,3,4,4a,5,6,7,7a-octahydro-1H-4,12-methanobenzofuro[3,2-e]isoquinolin-9-yl icosanoate], the “Approximate Solubility … Cottonseed oil” value [4] is reported as 57 to 67 mg/mL, the “Approximate Solubility … Cottonseed oil” value [5] is reported as 201 to 403 mg/mL and the “Approximate Solubility … Ethanol” value [4] is reported as under 25 mg/mL. The “Approximate Solubility … Sesame oil” value [4] was 68 to 81 mg/mL, the “Approximate Solubility … Sesame oil” value [5] was 202 to 404 mg/mL and the “Dry method and appearance” value ([2]; Acetone) was “Evaporation/white powder”. For the same compound, the “XRPD results (Dried)” value ([2]; Acetone) was “Pattern A”, the “Visual observation 50° C.” value ([2]; Acetone) was “Clear” and the “Visual observation RT” value ([2]; Acetone) was “Slurry”. The “Dry method and appearance” value ([2]; EtOAc) was “Evaporation/white powder”, the “XRPD results (Dried)” value ([2]; EtOAc) was “Pattern A” and the “Visual observation 50° C.” value ([2]; EtOAc) was “Clear”. The “Visual observation RT” value ([2]; EtOAc) was “Slurry”, the “Dry method and appearance” value ([2]; Heptane) was “Centrifugation/white powder” and the “XRPD results (Dried)” value ([2]; Heptane) was “Pattern A”. For the same compound, the “Visual observation 50° C.” value ([2]; Heptane) was “Slurry”, the “Visual observation RT” value ([2]; Heptane) was “Slurry” and the “Dry method and appearance” value ([2]; Isopropanol) was “Centrifugation/white powder”. For the same compound, the “XRPD results (Dried)” value ([2]; Isopropanol) was “Pattern A”, the “Visual observation 50° C.” value ([2]; Isopropanol) was “Slurry” and the “Visual observation RT” value ([2]; Isopropanol) was “Slurry”. For the same compound, the “Dry method and appearance” value ([2]; MTBE) was “Evaporation/white powder”, the “XRPD results (Dried)” value ([2]; MTBE) was “Pattern A” and the “Visual observation 50° C.” value ([2]; MTBE) was “Clear”. The “Visual observation RT” value ([2]; MTBE) was “Clear”.

With `C=C1CC[C@@]2(O)C3Cc4ccc(OC(=O)OCCCCCCCC)c5c4[C@@]2(CCN3CC2CC2)[C@H]1O5` [Compound 17, (4aS,7aS,12bS)-3-(cyclopropylmethyl)-4a-hydroxy-7-methylene-2,3,4,4a,5,6,7,7a-octahydro-1H-4,12-methanobenzofuro[3,2-e]isoquinolin-9-yl octyl carbonate] the “% remaining at time point” value ([1]; 0 min) was 100%, the “% remaining at time point” value ([1]; 15 min) was 0% and the “% remaining at time point” value ([1]; 120 min) was 0%. The “% remaining at time point” value ([1]; 480 min) was 0% and the “% remaining at time point” value ([1]; 1440 min) was 0%.

For `C=C1CC[C@@]2(O)C3Cc4ccc(OC(=O)CCCCCCC/C=C\C/C=C\CCCCC)c5c4[C@@]2(CCN3CC2CC2)[C@H]1O5` [Compound 37, (4aS,7aS,12bS)-3-(cyclopropylmethyl)-4a-hydroxy-7-methylene-2,3,4,4a,5,6,7,7a-octahydro-1H-4,12-methanobenzofuro[3,2-e]isoquinolin-9-yl (9Z,12Z)-octadeca-9,12-dienoate], the “Approximate Solubility (mg/mL) in Excipient: Castor oil” value (Castor oil, heating temp. 40 °C, obs. temp. 40 °C) was over 226 mg/mL, the “Approximate Solubility … Cottonseed oil” value [3] was 68.5-82^ mg/mL and the “Approximate Solubility … Ethanol” value [4] was 75 to 90 mg/mL. The “Approximate Solubility … Sesame oil” value [4] was over 408.4 mg/mL and the “Approximate Solubility … Sesame oil” value [3] was 80 to 102 mg/mL.

In the case of `C=C1CC[C@@]2(O)C3Cc4ccc(OC(=O)OCCCCCCCCCCC)c5c4[C@@]2(CCN3CC2CC2)[C@H]1O5` [Compound 3, (4aS,7aS,12bS)-3-(cyclopropylmethyl)-4a-hydroxy-7-methylene-2,3,4,4a,5,6,7,7a-octahydro-1H-4,12-methanobenzofuro[3,2-e]isoquinolin-9-yl undecyl carbonate], the “Solubility by volumetric flask method: Cottonseed oil” value (Volumetric flask method, cottonseed oil, heating temp. 60 °C, obs. temp. 25 °C) is reported as over 399.12 mg/mL, the “Solubility by volumetric flask method: Sesame oil” value (Volumetric flask method, sesame oil, heating temp. 60 °C, obs. temp. 25 °C) is reported as over 400.7 mg/mL and the “Equilibrium solubility (mg/mL) Water” value (section 'Solubility by volumetric flask method', heating temp. 40 °C, obs. temp. 40 °C) is reported as under 0.001 mg/mL.

In the case of `CCCCCCCCOC(=O)Oc1ccc2c3c1O[C@H]1C(=O)CC[C@@]4(O)C(C2)N(CC2CC2)CC[C@]314` [Compound 23, (4aS,7aR,12bS)-3-(cyclopropylmethyl)-4a-hydroxy-7-oxo-2,3,4,4a,5,6,7,7a-octahydro-1H-4,12-methanobenzofuro[3,2-e]isoquinolin-9-yl octyl carbonate], the “% remaining at time point” value ([1]; 0 min) is reported as 100%, the “% remaining at time point” value ([1]; 15 min) is reported as 0% and the “% remaining at time point” value ([1]; 120 min) is reported as 0%. For the same compound, the “% remaining at time point” value ([1]; 480 min) was 0% and the “% remaining at time point” value ([1]; 1440 min) was 0%.

With `CCCCCCCCCCCCOC(=O)OCOc1ccc2c3c1O[C@H]1C(=O)CC[C@@]4(O)C(C2)N(CC2CC2)CC[C@]314` [Compound 29, (((4aS,7aR,12bS)-3-(cyclopropylmethyl)-4a-hydroxy-7-oxo-2,3,4,4a,5,6,7,7a-octahydro-1H-4,12-methanobenzofuro[3,2-e]isoquinolin-9-yl)oxy)methyl dodecyl carbonate] the “Approximate Solubility … Cottonseed oil” value [3] was over 410.2 mg/mL, the “Approximate Solubility … Sesame oil” value [3] was over 416.5 mg/mL and the “Equilibrium solubility (mg/mL) Water” value [4] was under 0.001 mg/mL.

In the case of `CCCCCCCCCCCCCCOC(=O)OCOc1ccc2c3c1O[C@H]1C(=O)CC[C@@]4(O)C(C2)N(CC2CC2)CC[C@]314` [Compound 27, (((4aS,7aR,12bS)-3-(cyclopropylmethyl)-4a-hydroxy-7-oxo-2,3,4,4a,5,6,7,7a-octahydro-1H-4,12-methanobenzofuro[3,2-e]isoquinolin-9-yl)oxy)methyl tetradecyl carbonate], the “Approximate Solubility … Cottonseed oil” value [3] is reported as over 394.7 mg/mL, the “Approximate Solubility … Sesame oil” value [3] is reported as over 399.2 mg/mL and the “Equilibrium solubility (mg/mL) Water” value [4] is reported as under 0.001 mg/mL.
